This note sets out measurements from US10149472B2, “Chitin oligomers for use in promoting non-leguminous plant growth and development” (Wisconsin Alumni Research Foundation, priority 2015, dated 2018).

Assay [1] deals with rice atrichoblasts on lateral roots. Put plainly: Calcium spiking (YC3.6 imaging) in rice atrichoblasts on lateral roots. The class given is cell-based, Oryza sativa cv Nipponbare. As to conditions: for calcium oscillations: FIG. 1; for calcium oscillations, CO4 compared with CO8: 10^−8M and 10^−5 M, FIG. 2. The protocol:
Mycorrhizal induced calcium responses were measured as described previously (14). Transgenic Oryza sativa Nipponbare lines carrying Yellow Cameleon 3.6 (YC3.6) FRET-based calcium sensor was used to detect calcium spiking. YC3.6 was imaged on a Nikon Eclipse Ti inverted microscope (Nikon, Japan) equipped with an OptoLED Illuminator (model OptoLED, Cairn Research Ltd, UK). YC3.6 was excited at a wavelength of 455 nm using a royal blue LED and was captured with a charge-coupled device (CCD) camera (model RETIGA-SRV, Qimaging, Canada). Emitted fluorescence was separated by an image splitter with a dichroic mirror (model Optosplit II, Cairn Research Ltd, UK) and then passed through a fluorescence filter set. Images were collected every 5 seconds with 1-second exposure and analyzed using MetaFluor (Molecular Devices, Sunnyvale, Calif., USA).
For Bayesian Spectrum Analysis we computed the most probable periods in the time series following published procedures (15). Ten traces per treatment were analyzed. The joint distributions over the period were used to characterize each group. The plots show binned data to summarize the key periods. These ten traces per treatment were also analyzed for interspike intervals. The point of maximum height for each spike was computed after detrending of the time series using a moving average algorithm. The distances between these maxima gave rise to an interspike distribution. We used the non-parametric Mann-Whitney U-test, also known as the Mann-Whitney-Wilcoxon test (16, 17) to test for significant differences between the distributions.
Three traces per treatment, with approximately 80 spikes altogether, were analyzed for calcium spike characteristics. […] The traces were detrended using a moving average algorithm (18). We then characterized the spikes by the time required for each upward and downward phase. This was computed by the number of data points it took from the maximum spike height to the baseline fluctuation of the trace. The plots show the mean value of the upward and downward phases for each treatment, and the associated standard deviations are indicated by the error bars.
Calcium responses were assessed using a stably transformed line of Oryza sativa cv Nipponbare carrying YC3.6. […] To test an array of different LCO structures, we analyzed calcium spiking in response to Nod factor isolations from the broad host range rhizobial species, Rhizobium sp. NGR234, as well as Rhizobium tropici, in addition to the Myc-LCOs.

Another assay relates to Hard Red Spring Wheat. Put plainly: Seed treatment of hard red spring wheat in pots. It counts as in vivo. To be noted: seed coating 125 μl of 10^−6 M, 2 weeks after planting. The protocol:
(§1) Five grams of hard red spring wheat seeds were added to three separate 50 ml tubes. A water solution containing 0.5% ethanol was added to the control tube, 125 μl of 10^−6 M CO4 solution was added to the CO4 tube, and 125 μl of 10^−6 M CO8 solution was added to the CO8 tube. Each tube was then shaken to coat the seeds. Seeds were potted immediately following treatment into moistened SUNGRO® potting mix in 4×6×6 cm pots. Plants were watered by pouring water into the tray containing the pots up to about ¾ inch high. After sowing the seeds, the pots were randomly distributed (16 pots per treatment) throughout the tray and placed underneath continuous light at room temperature for 1 week. Liquid Fahräeus medium (plant fertilizer solution; see above) was applied every 2 days or when necessary. After a week, the pots were placed underneath 10 h light and 14 h dark cycle at room temperature for 1 week. After 1 week underneath 10 h light and 14 h dark cycle (2 weeks after planting), the plants were carefully removed from the pots, and as much soil as possible was shaken off. The remaining soil was removed by submerging the root system into a beaker of water. The number of primary roots (PR), lateral roots (LR), root system length (RSL) and dry weight (DW) was then measured for all plants.

The next assay concerns corn (maize). In words: Seed treatment of corn in pots. It counts as in vivo. As to conditions: seed coating 125 μl of 10^−6 M, 2 weeks after planting. The protocol:
as §1, with “corn (maize)” for “hard red spring wheat”

For the compound `CC(=O)N[C@H]1[C@H](O[C@H]2[C@H](O)[C@@H](NC(C)=O)C(O)O[C@@H]2CO)O[C@H](CO)[C@@H](O[C@@H]2O[C@H](CO)[C@@H](O[C@@H]3O[C@H](CO)[C@@H](O)[C@H](O)[C@H]3NC(C)=O)[C@H](O)[C@H]2NC(C)=O)[C@@H]1O` (stereo partly shown) [CO4, tetra-N-acetylchitotetraose], the calcium oscillations result in assay [1] (10^−5M, rice large lateral roots, epidermal cells (atrichoblasts)) is on record as “strong calcium oscillations”. The “calcium oscillations, CO4 compared with CO8” value in assay [1] was “respond equally well”. Moreover, the calcium oscillations entry in assay [1] (10^−8M, rice epidermal cells, robustness and number of responsive cells reduced) is “still showed calcium oscillations”. Moreover, in the assay on Hard Red Spring Wheat, the “Number of Lateral Roots” value is reported as 16.25, the “Number of Primary Roots” value is recorded as 3.15 and the “Root System Length (cm)” value was 11.75 cm. Moreover, in the assay with corn (maize), the “Average Dry Weight” value is given as 0.1225, the “Average Root System Length” value amounted to 23.76 and the “Average Seminal Roots” value stood at 4.45.
For `CC(=O)N[C@H]1[C@H](O[C@H]2[C@H](O)[C@@H](NC(C)=O)[C@H](O[C@H]3[C@H](O)[C@@H](NC(C)=O)[C@H](O[C@H]4[C@H](O)[C@@H](NC(C)=O)C(O)O[C@@H]4CO)O[C@@H]3CO)O[C@@H]2CO)O[C@H](CO)[C@@H](O[C@@H]2O[C@H](CO)[C@@H](O[C@@H]3O[C@H](CO)[C@@H](O[C@@H]4O[C@H](CO)[C@@H](O[C@@H]5O[C@H](CO)[C@@H](O)[C@H](O)[C@H]5NC(C)=O)[C@H](O)[C@H]4NC(C)=O)[C@H](O)[C@H]3NC(C)=O)[C@H](O)[C@H]2NC(C)=O)[C@@H]1O` (stereo partly shown) [CO8, octa-N-acetyl-chitooctaose], in assay [1], the “calcium oscillations, CO4 compared with CO8” value is given as “respond equally well”. In the assay on Hard Red Spring Wheat, the “Number of Lateral Roots” value came to 14.30, the “Number of Primary Roots” value was 3.35 and the “Root System Length (cm)” value was determined as 12.22 cm. Besides, in the assay on corn (maize), the “Average Dry Weight” value is recorded as 0.1229, the “Average Root System Length” value was 21.42 and the “Average Seminal Roots” value amounted to 4.75.
